From PubChem BioAssay (NCI)
Several values for one entry are separate records, joined by “and”; a condition that tells them apart may be missing. Identical values can stand only once.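 Five compound concentrations were applied to cells in 96-well plates for 48 hours; endpoints were derived by simple linear interpolation of the resulting dose-response curve. Abbreviation: GI50, concentration required for 50% inhibition of growth. TGI: total growth inhibition.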

Columns and labels:
Test in all cases: DTP human tumour cell line panel, 48 h
UACC-257 melanoma = system: UACC-257 melanoma
A498 renal = system: A498 renal
SF-539 CNS = system: SF-539 CNS
RXF 393 renal = system: RXF 393 renal
SK-MEL-2 melanoma = system: SK-MEL-2 melanoma
ACHN renal = system: ACHN renal
TK-10 renal = system: TK-10 renal
SNB-19 CNS = system: SNB-19 CNS
K-562 leukemia = system: K-562 leukemia
COLO 205 colon = system: COLO 205 colon

## Nc1nccc(Nc2ccc(S(N)(=O)=O)cc2)n1
UACC-257 melanoma
  TGI: > 100 µM
A498 renal
  TGI: > 100 µM
SF-539 CNS
  TGI: > 100 µM
RXF 393 renal
  TGI: > 100 µM
SK-MEL-2 melanoma
  TGI: > 100 µM
ACHN renal
  TGI: > 100 µM
TK-10 renal
  TGI: > 100 µM
SNB-19 CNS
  TGI: > 100 µM
K-562 leukemia
  TGI: > 100 µM
COLO 205 colon
  TGI: > 100 µM

## CC(C)(O)[C@H]1[C@@H]2OC(=O)[C@H]1[C@]1(O)C[C@H]3OC34C(=O)O[C@H]2[C@@]41C (some centres undefined) (tested in a mixture with another compound)
UACC-257 melanoma
  TGI: > 100 µM
A498 renal
  TGI: > 100 µM
SF-539 CNS
  TGI: > 100 µM
RXF 393 renal
  TGI: > 100 µM
SK-MEL-2 melanoma
  TGI: > 100 µM
ACHN renal
  TGI: > 100 µM
TK-10 renal
  TGI: > 100 µM
SNB-19 CNS
  TGI: > 100 µM
K-562 leukemia
  TGI: > 100 µM
COLO 205 colon
  TGI: > 100 µM

## Cc1ccc(C(=O)NC2CCCCC2)cc1-c1ccc(C(=O)NCC2CC2)cc1
UACC-257 melanoma
  GI50: > 25 µM
  TGI: > 25 µM
A498 renal
  GI50: 8.51 µM
  TGI: > 25 µM
SF-539 CNS
  GI50: > 25 µM
  TGI: > 25 µM
RXF 393 renal
  GI50: > 25 µM
  TGI: > 25 µM
SK-MEL-2 melanoma
  GI50: > 25 µM
  TGI: > 25 µM
ACHN renal
  GI50: > 25 µM
  TGI: > 25 µM
TK-10 renal
  GI50: > 25 µM
  TGI: > 25 µM
SNB-19 CNS
  GI50: > 25 µM
  TGI: > 25 µM
K-562 leukemia
  GI50: 19.4 µM
  TGI: > 25 µM
COLO 205 colon
  GI50: > 25 µM
  TGI: > 25 µM

## Cc1c(CCl)c(=O)oc2c(C)c3occ(CCl)c(=O)c3cc12
UACC-257 melanoma
  TGI: > 100 µM
A498 renal
  TGI: > 100 µM
SF-539 CNS
  TGI: 44.9 µM
RXF 393 renal
  TGI: 30.9 µM
SK-MEL-2 melanoma
  TGI: > 100 µM
ACHN renal
  TGI: > 100 µM
TK-10 renal
  TGI: > 100 µM
SNB-19 CNS
  TGI: 54.7 µM
K-562 leukemia
  TGI: 23.6 µM
COLO 205 colon
  TGI: 32.9 µM

## O=C(O)CCC1CCC(c2cc(F)ccc2F)(S(=O)(=O)c2ccc(Cl)cc2)CC1 (centres undefined)
UACC-257 melanoma
  GI50: 44 µM and > 100 µM
  TGI: > 100 µM
A498 renal
  TGI: 67.1 µM and > 100 µM
SF-539 CNS
  GI50: 29.4 µM and > 100 µM
  TGI: > 100 µM
RXF 393 renal
  GI50: 12.5 µM and 76.6 µM
  TGI: 78.8 µM and > 100 µM
SK-MEL-2 melanoma
  GI50: 20.1 µM and > 100 µM
  TGI: 69.7 µM and > 100 µM
ACHN renal
  GI50: 56.7 µM and > 100 µM
  TGI: > 100 µM
TK-10 renal
  GI50: 27.3 µM and > 100 µM
  TGI: > 100 µM
SNB-19 CNS
  GI50: 55.1 µM and > 100 µM
  TGI: > 100 µM
K-562 leukemia
  GI50: 34.6 µM and 34.7 µM
  TGI: > 100 µM
COLO 205 colon
  GI50: 42.3 µM and > 100 µM
  TGI: > 100 µM

## COC(=O)N/N=C(\C)C(CN1CCOCC1)C(c1ccccc1)c1cc2ccccc2oc1=O (centres undefined)
UACC-257 melanoma
  TGI: > 100 µM
A498 renal
  TGI: > 100 µM
SF-539 CNS
  TGI: > 100 µM
RXF 393 renal
  TGI: > 100 µM
SK-MEL-2 melanoma
  TGI: > 100 µM
ACHN renal
  TGI: > 100 µM
TK-10 renal
  TGI: > 100 µM
SNB-19 CNS
  TGI: > 100 µM
K-562 leukemia
  TGI: > 100 µM
COLO 205 colon
  TGI: > 100 µM

## CCCCCCCCCC(=O)OCC1OC(n2cc(F)c(=O)[nH]c2=O)C(N)C(OC(=O)CCCCCCCCC)C1O (centres undefined)
UACC-257 melanoma
  TGI: 39 µM
A498 renal
  TGI: 31.6 µM
SF-539 CNS
  TGI: 33.7 µM
RXF 393 renal
  TGI: 31.9 µM
SK-MEL-2 melanoma
  TGI: 29.6 µM
ACHN renal
  TGI: > 100 µM
TK-10 renal
  TGI: > 100 µM
SNB-19 CNS
  TGI: 33.6 µM
K-562 leukemia
  TGI: 36.7 µM
COLO 205 colon
  TGI: 31.2 µM

## CC1(C)C2CCC13C(=O)C1OC3(C2)C2C(=O)c3c(O)ccc(O)c3C(=O)C12 (centres undefined)
UACC-257 melanoma
  GI50: 32.7 µM
  TGI: > 66.7 µM
A498 renal
  GI50: 4.95 µM
  TGI: 56.6 µM
SF-539 CNS
  GI50: 48 µM
  TGI: > 100 µM
RXF 393 renal
  GI50: 31.1 µM
  TGI: > 56.9 µM
SK-MEL-2 melanoma
  GI50: 26.1 µM
  TGI: > 100 µM
ACHN renal
  GI50: 41 µM
  TGI: > 100 µM
TK-10 renal
  GI50: 26.1 µM
  TGI: 69 µM
SNB-19 CNS
  GI50: 61.5 µM
  TGI: > 100 µM
K-562 leukemia
  GI50: 21.2 µM
  TGI: > 59.1 µM
COLO 205 colon
  GI50: 25.9 µM
  TGI: > 61.5 µM
